Measured values published in US20190254276A1 (priority 2010, published 2019).
Read-outs that look alike come from different tables or passages of the source.

How the values were obtained:
[1] = tested on: BVDV; conditions: 45% PG eluate; for Titre: Standard titration; for Reduction Factor: vs T0
[2] = tested on: TGEV; conditions: 45% PG eluate; for Reduction Factor: vs T0

propane-1,2-diol [PG] was tested, and the “Clearance Factor” value ([1]; Run 1, T = 0 Load Sample) was 0.43 log, the “Clearance Factor” value ([1]; Run 1, T = 5 min) was 165 log and the “Log10TICD50 (total viral load)” value ([1]; Run 1, T = 5 min) was 4.53 Log10TICD50. For the same substance, the Titre ([1]; Run 1, T = 5 min) was 18 log10TCID50/ml, the “Reduction Factor” value ([1]; Run 1, T = 5 min) was 122 log and the “Clearance Factor” value ([1]; Run 1, T = 15 min) was 13 log. The “Log10TICD50 (total viral load)” value ([1]; Run 1, T = 15 min) was 6.50 Log10TICD50, the “Reduction Factor” value ([1]; Run 1, T = 15 min) was 0.97 log and the “Clearance Factor” value ([1]; Run 1, T = 60 min) was 13 log. For the same substance, the “Log10TICD50 (total viral load)” value ([1]; Run 1, T = 60 min) was 4.90 Log10TICD50, the “Reduction Factor” value ([1]; Run 1, T = 60 min) was 0.97 log and the “Clearance Factor” value ([1]; Run 1, T = 180 min) was 13 log. The “Log10TICD50 (total viral load)” value ([1]; Run 1, T = 180 min) was 4.58 Log10TICD50, the “Reduction Factor” value ([1]; Run 1, T = 180 min) was 0.97 log and the “Clearance Factor” value ([1]; Run 2, T = 0 Load Sample) was 0.44 log. For the same substance, the “Log10TICD50 (total viral load)” value ([1]; Run 2, T = 0 Load Sample) was 5.78 Log10TICD50, the Titre ([1]; Run 2, T = 25) was 132 log10TCID50/ml and the “Reduction Factor” value ([1]; Run 2, T = 25) was 171 log. For the same substance, the “Clearance Factor” value ([1]; Run 2, T = 5 min) was 188 log, the Titre ([1]; Run 2, T = 5 min) was 159 log10TCID50/ml and the “Reduction Factor” value ([1]; Run 2, T = 5 min) was 144 log. The “Clearance Factor” value ([1]; Run 2, T = 60 min) was 168 log, the Titre ([1]; Run 2, T = 60 min) was 189 log10TCID50/ml and the “Reduction Factor” value ([1]; Run 2, T = 60 min) was 144 log. The “Clearance Factor” value ([2]; Run 1, T = 0 Load Sample) was 0.07 log, the Titre ([2]; Run 1, T = 0 Load Sample, Standard titration) was 5.12 log10 TCID50/ml and the “Clearance Factor” value ([2]; Run 1, T = 5 min) was 124 log. The “Log10TICD50 (total viral load)” value ([2]; Run 1, T = 5 min) was 5.21 Log10TICD50, the Titre ([2]; Run 1, T = 5 min, Standard titration) was 3.95 log10 TCID50/ml and the “Reduction Factor” value ([2]; Run 1, T = 5 min) was 1.0 log. The Titre ([2]; Run 1, T = 15 min, Standard titration) was 2.78 log10 TCID50/ml, the Titre ([2]; Run 1, T = 60 min, Standard titration) was 132 log10 TCID50/ml and the “Reduction Factor” value ([2]; Run 1, T = 60 min) was 3.0 log. The “Clearance Factor” value ([2]; Run 1, T = 180 min) was 4.38 log, the “Log10TICD50 (total viral load)” value ([2]; Run 1, T = 180 min) was 3.08 Log10TICD50 and the Titre ([2]; Run 1, T = 180 min, Standard titration) was 0.8 log10 TCID50/ml. For the same substance, the Titre ([2]; Run 1, T = 360 min, Standard titration) was under 0.8 log10 TCID50/ml, the “Clearance Factor” value ([2]; Run 2, T = 0 Load Sample) was 0.08 log and the Titre ([2]; Run 2, T = 0 Load Sample, Standard titration) was 5.28 log10 TCID50/ml. The Titre ([2]; Run 2, T = 5 min, Standard titration) was 4.26 log10 TCID50/ml, the “Reduction Factor” value ([2]; Run 2, T = 5 min) was 1 log and the “Log10TICD50 (total viral load)” value ([2]; Run 2, T = 15 min) was 5.40 Log10TICD50. For the same substance, the Titre ([2]; Run 2, T = 15 min, Standard titration) was 3.2 log10 TCID50/ml, the “Reduction Factor” value ([2]; Run 2, T = 15 min) was 8.05 log and the “Clearance Factor” value ([2]; Run 2, T = 60 min) was 4.50 log. The Titre ([2]; Run 2, T = 60 min, Standard titration) was 0.8 log10 TCID50/ml, the “Reduction Factor” value ([2]; Run 2, T = 60 min) was 4.45 log and the Titre ([2]; Run 2, T = 180 min, 1 LVP (96 wells)) was −0.12 log10 TCID50/ml. The “Reduction Factor” value ([2]; Run 2, T = 180 min, LVP) was 5.4 log, the Titre ([2]; Run 2, T = 360 min, 1 LVP (96 wells)) was under −0.12 log10 TCID50/ml and the “Reduction Factor” value ([2]; Run 2, T = 360 min, LVP) was over 5.40 log.
